Experimental data as given in article PMC6123015 (Biochemistry, 2018).

Target: T1, macrophage migration inhibitory factor-1 (MIF-1) (Homo sapiens, UniProt P14174)
T1 sequence (P14174 2-115): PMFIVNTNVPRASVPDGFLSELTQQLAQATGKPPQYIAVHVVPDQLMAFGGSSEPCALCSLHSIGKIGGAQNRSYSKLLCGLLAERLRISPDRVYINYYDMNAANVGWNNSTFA
Test: HPP tautomerase inhibition kinetics with purified protein
Format: biochemical

Ki: 431 ± 37 µM
SMILES: O=C(O)c1cccc(-c2cc(C(=O)O)ncc2C(=O)O)c1 [4-CPPC, 4-(3-Carboxyphenyl)-2,5pyridinedicarboxylic acid]
